Measurements from ChEMBL document CHEMBL1158265, “Isoprenyl phenyl ethers from liverworts of the genus Trichocolea: cytotoxic activity, structural corrections, and synthesis” (J Nat Prod, 1996).

Experiments:
Candida albicans = assay: Antifungal activity against Candida albicans at 60 ug/disk; assay type: functional; conditions: read-out: IZ
[1] = Cytotoxicity against african green monkey BSC1 cells at 60 ug/disk; assay type: cell-based; conditions: chlorocebus aethiops, bsc-1
[2] = system: Trichophyton mentagrophytes; assay: Antifungal activity against Trichophyton mentagrophytes at 60 ug/disk; assay type: functional; conditions: read-out: IZ

Row | SMILES | zone of inhibition at 60 µg/disc (Candida albicans) | Activity [1] | zone of inhibition at 60 µg/disc [2]
1 | COC(=O)c1ccc(OCC=C(C)C)c(OC)c1 | 1 mm | 50% | 2 mm
2 | COC(=O)c1ccc(O)c(OC)c1 [METHYL VANILLATE] | 0 mm | 25% | 0 mm
